Data published in patent US20060148838A1, “Novel pyrrolodihydroisoquinolines useful in the treatment of cancer” (Altana Pharma AG, priority 2003, published 2006).

Legend:
[1] = test system: NCl-H460 non-small cell lung cancer cells; experiment: Alamar Blue cell viability assay, anti-proliferative/cytotoxic activity; format: cell-based; conditions: 72 hours incubation, one range stated for all listed Examples, read-out: −log IC50 NCl-H460 (converted)
Description: The anti-proliferative/cytotoxic activity of the compounds described herein, can be tested on NCl-H460 non-small cell lung cancer cells using the Alamar Blue cell viability assay (described in O'Brien et al. Eur J Biochem 267, 5421-5426, 2000). The compounds are dissolved as 20 mM solutions in dimethylsulfoxide (DMSO) and subsequently diluted in semi-logarithmic steps. DMSO dilutions are further diluted 1:100 into Dulbecco's modified Eagle's medium (DMEM) containing 10% fetal calf serum to a final concentration twice as much as the final concentration in the test. NCl-460 cells are seeded into 96 well flat bottom plates at a density of 4000 cells per well in a volume of 50 μl per well. 24 hours after seeding the 50 μl each of the compound dilutions in DMEM medium are added into each well of the 96 Well plate. Each compound dilution is tested as quadruplicates. Wells containing untreated control cells are filled with 50 μl DMEM medium containing 1% DMSO. The cells are then incubated with the substances for 72 hours at 37° C. In a humified atmosphere containing 5% carbon dioxide. To determine the viability of the cells, 10 μl of an Alamar Blue solution (Biosource) are added and the fluorescence is measured at an extinction of 544 nm and an emission of 590 nm. For the calculation of cell viability the emission value from untreated cells is set to 100% viability and the emission rates of treated cells are set in relation to the values of untreated cells. Viabilities are expressed as % values.
The corresponding IC50 values of the compounds for anti-proliferative/cytotoxic activity are determined from the concentration-effect curves.
Representative advantageous IC50 values for anti-proliferation/cytotoxicity determined for the compounds mentioned and numbered as Examples in the examples above follow from the following table A, in which the numbers of the compound correspond to the numbers of the examples.

Structure (SMILES) | IC50 [1] [nM] | melting point [°C]
CCOC(=O)c1c(-c2cc(C)c(O)c(C)c2)c(C)n2c1-c1cc(N)c(OC)cc1CC2 [Example 25, 9-Amino-2-(4-hydroxy-3,5-dimethyl-phenyl)-8-methoxy-3-methyl-5,6-dihydro-pyrrolo[2,1-a]isoquinoline-1-carboxylic acid ethyl ester] | 398 to 3160 | 104 to 106
COc1cc2c(cc1OC)-c1c(C(N)=O)c(-c3cc(C)c(O)c(C)c3)c(C)n1CC2 [Example 33, 2-(4-Hydroxy-3,5-dimethyl-phenyl)-8,9-dimethoxy-3-methyl-5,6-dihydro-pyrrolo[2,1-a]isoquinoline-1-carboxylic acid amide] |  | 229 to 231
COc1cc2c(cc1OC)-c1c(C(=O)c3ccccc3)c(-c3cc(C)c(O)c(C)c3)c(C)n1CC2 [Example 26, 1-[2-(4-hydroxy-3,5-dimethyl-phenyl)-8,9-dimethoxy-3-methyl-5,6-dihydro-pyrrolo[2,1-a]isoquinolin-1-yl]-1-phenyl-methanone] |  | 194 to 196
CCOC(=O)c1c(-c2cccc(N(C)C)c2)c(C)n2c1-c1cc(Cl)c(OC)cc1CC2 [Example 16, 9-Chloro-2-(3-dimethylamino-phenyl)-8-methoxy-3-methyl-5,6-dihydro-pyrrolo[2,1-a]isoquinoline-1-carboxylic acid ethyl ester] | 398 to 3160 | 
COc1cc2c(cc1OC)-c1c(-c3ccccc3)c(-c3cc(C)c(O)c(C)c3)c(C)n1CC2 [Example 27, 4-(8,9-Dimethoxy-3-methyl-1-phenyl-5,6-dihydro-pyrrolo[2,1-a]isoquinolin-2-yl)-2,6-dimethyl-phenol] |  | 210 to 214
CCOC(=O)c1c(-c2cc(OC)c(OC)c(OC)c2)c(C)n2c1-c1cc(Cl)c(OC)cc1CC2 [Example 15, 9-Chloro-8-methoxy-3-methyl-2-(3,4,5-trimethoxy-phenyl)-5,6-dihydro-pyrrolo[2,1-a]isoquinoline-1-carboxylic acid ethyl ester] |  | 172 to 174
CCOC(=O)c1c(-c2cc(C)c(O)c(C)c2)c(C)n2c1-c1cc(OC)c(OC)cc1C(C)C2 (racemic) [Example 2, (6RS)-2-(4-Hydroxy-3,5-dimethyl-phenyl)-8,9-dimethoxy-3,6-dimethyl-5,6-dihydro-pyrrolo[2,1-a]isoquinoline-1-carboxylic acid ethyl ester] | 398 to 3160 | 
CCOC(=O)c1c(-c2cccc3ccccc23)c(C)n2c1-c1cc(OC)c(OCCOC)cc1CC2 [Example 20, 9-Methoxy-8-(2-methoxy-ethoxy)-3-methyl-2-naphthalen-1-yl-5,6-dihydro-pyrrolo[2,1-a]isoquinoline-1-carboxylic acid ethyl ester] | 398 to 3160 | 126 to 128
CCOC(=O)c1c(-c2cc(C)c(O)c(C)c2)c(C)n2c1-c1cc(C)c(OC)cc1CC2 [Example 23, 2-(4-Hydroxy-3,5-dimethyl-phenyl)-8-methoxy-3,9-dimethyl-5,6-dihydro-pyrrolo[2,1-a]isoquinoline-1-carboxylic acid ethyl ester] |  | 179 to 181
CCOC(=O)c1c(-c2cc(OC)c(OC)c(OC)c2)c(C)n2c1-c1cc(OC)c(OCCOC)cc1CC2 [Example 19, 9-Methoxy-8-(2-methoxy-ethoxy)-3-methyl-2-(3,4,5-trimethoxy-phenyl)-5,6-dihydro-pyrrolo[2,1-a]isoquinoline-1-carboxylic acid ethyl ester] |  | 152 to 154
CCOC(=O)c1c(-c2cc(C)c(O)c(C)c2)c(C)n2c1-c1cc([N+](=O)[O-])c(OC)cc1CC2 [Example 22, 2-(4-Hydroxy-3,5-dimethyl-phenyl)-8-methoxy-3-methyl-9-nitro-5,6-dihydro-pyrrolo[2,1-a]isoquinoline-1-carboxylic acid ethyl ester] | 398 to 3160 | 209 to 211
CCOC(=O)c1c(-c2cc(C)c(O)c(C)c2)c(C)n2c1-c1cc(OC)c(OC(F)F)cc1CC2 [Example 9, 8-(1,1-Difluoro-methoxy)-2-(4-hydroxy-3,5-dimethyl-phenyl)-9-methoxy-3-methyl-5,6-dihydro-pyrrolo[2,1-a]isoquinoline-1-carboxylic acid ethyl ester] | 398 to 3160 | 126 to 128
COc1cc2c(cc1OC)-c1c(C(=O)NC3CCCCC3)c(-c3cc(C)c(O)c(C)c3)c(C)n1CC2 [Example 28, 2-(4-Hydroxy-3,5-dimethyl-phenyl)-8,9-dimethoxy-3-methyl-5,6-dihydro-pyrrolo[2,1-a]isoquinoline-1-carboxylic acid cyclohexyl amide] | 398 to 3160 | 273 to 276
CNC(=O)c1c(-c2cc(C)c(O)c(C)c2)c(C)n2c1-c1cc(OC)c(OC)cc1CC2 [Example 32, 2-(4-Hydroxy-3,5-dimethyl-phenyl)-8,9-dimethoxy-3-methyl-5,6-dihydro-pyrrolo[2,1-a]isoquinoline-1-carboxylic acid methylamide] |  | 281 to 283
CCOC(=O)c1c(-c2cc(OC)c(OC)c(OC)c2)c(C)n2c1-c1cc(OC)c(OC(F)F)cc1CC2 [Example 8, 8-(1,1-Difluoro-methoxy)-9-methoxy-3-methyl-2-(3,4,5-trimethoxy-phenyl)-5,6-dihydro-pyrrolo[2,1-a]isoquinoline-1-carboxylic acid ethyl ester] |  | 155
COc1cc2c(cc1OC)-c1c(C(=O)N(C)C)c(-c3cc(C)c(O)c(C)c3)c(C)n1CC2 [Example 31, 2-(4-Hydroxy-3,5-dimethyl-phenyl)-8,9-dimethoxy-3-methyl-5,6-dihydro-pyrrolo[2,1-a]isoquinoline-1-carboxylic acid dimethylamide] |  | 259 to 261
COc1cc2c(cc1OC)-c1c(C(=O)Nc3ccccc3)c(-c3cc(C)c(O)c(C)c3)c(C)n1CC2 [Example 34, 2-(4-Hydroxy-3,5-dimethyl-phenyl)-8,9-dimethoxy-3-methyl-5,6-dihydro-pyrrolo[2,1-a]isoquinoline-1-carboxylic acid phenylamide] | 398 to 3160 | 271 to 273
CCOC(=O)c1c(-c2cc(C)c(O)c(C)c2)c(C)n2c1-c1cc(F)c(OC)cc1CC2 [Example 21, 9-Fluoro-2-(4-hydroxy-3,5-dimethyl-phenyl)-8-methoxy-3-methyl-5,6-dihydro-pyrrolo[2,1-a]isoquinoline-1-carboxylic acid ethyl ester] | 398 to 3160 | 
CCOC(=O)c1c(-c2cc(C)c(O)c(C)c2)c(C)n2c1-c1cc(OC)c(OC)cc1C(C)(C)C2 [Example 1, 2-(4-hydroxy-3,5-dimethyl-phenyl)-8,9-dimethoxy-3,6,6-trimethyl-5,6-dihydro-pyrrolo[2,1-a]isoquinoline-1-carboxylic acid ethyl ester] | 398 to 3160 | 200 to 202
COc1cc2c(cc1OC)-c1c(C(=O)NC(C)C)c(-c3cc(C)c(O)c(C)c3)c(C)n1CC2 [Example 30, 2-(4-Hydroxy-3,5-dimethyl-phenyl)-8,9-dimethoxy-3-methyl-5,6-dihydro-pyrrolo[2,1-a]isoquinoline-1-carboxylic acid isopropylamide] | 398 to 3160 | 
COc1cc2c(cc1OC)-c1c(C(=O)NC3CC3)c(-c3cc(C)c(O)c(C)c3)c(C)n1CC2 [Example 37, 2-(4-Hydroxy-3,5-dimethyl-phenyl)-8,9-dimethoxy-3-methyl-5,6-dihydro-pyrrolo[2,1-a]isoquinoline-1-carboxylic acid cyclopropylamide] |  | 254 to 256
CCOC(=O)c1c(-c2cc(C)c(O)c(C)c2)c(C)n2c1-c1cc(OC)c(Cl)cc1CC2 [Example 17, 8-Chloro-2-(4-hydroxy-3,5-dimethyl-phenyl)-9-methoxy-3-methyl-5,6-dihydro-pyrrolo[2,1-a]isoquinoline-1-carboxylic acid ethyl ester] |  | 167 to 169
CCOC(=O)c1c(-c2cccc(N(C)C)c2)c(C)n2c1-c1cc(OC)c(OC(F)F)cc1CC2 [Example 10, 8-(1,1-Difluoro-methoxy)-2-(3-dimethylamino-phenyl)-9-methoxy-3-methyl-5,6-dihydro-pyrrolo[2,1-a]isoquinoline-1-carboxylic acid ethyl ester] | 398 to 3160 | 
CCNC(=O)c1c(-c2cc(C)c(O)c(C)c2)c(C)n2c1-c1cc(OC)c(OC)cc1CC2 [Example 35, 2-(4-Hydroxy-3,5-dimethyl-phenyl)-8,9-dimethoxy-3-methyl-5,6-dihydro-pyrrolo[2,1-a]isoquinoline-1-carboxylic acid ethylamide] |  | 242 to 244
CCOC(=O)c1c(-c2cc(C)c(O)c(C)c2)c(C)n2c1-c1c(cc(OC)c(OC)c1OC)CC2 [Example 7, 2-(4-Hydroxy-3,5-dimethyl-phenyl)-8,9,10-trimethoxy-3-methyl-5,6-dihydro-pyrrolo[2,1-a]isoquinoline-1-carboxylic acid ethyl ester] |  | 246 to 251
